“Also recorded” adds a separate entry of the source.
What was measured:
[1] = target: ROCK-I(h) (Homo sapiens, UniProt Q13464); assay: Kinase Profiler; type: biochemical
Method: (§1) Blood cell counts, kinase profiler, safety screen, bacterial cytotoxicity, Ames, micronucleus assays were performed by the company Eurofins (France). The kinase profiler was performed by the company Eurofins (Discovery, Panlab and Cerep).

[2] = target: cSRC(h) (Homo sapiens, UniProt P12931); assay: Kinase Profiler; type: biochemical
Method: (§2) The kinase profiler was performed by the company Eurofins (Discovery, Panlab and Cerep).

[3] = target: CDK4/cyclinD3(h) (Homo sapiens, UniProt P11802); assay: Kinase Profiler; type: biochemical
Method: as §1

[4] = target: MAPKAP-K2(h) (Homo sapiens, UniProt P49137); assay: Kinase Profiler; type: biochemical
Method: as §2

[5] = target: MSK1(h) (Homo sapiens, UniProt O75582); assay: Kinase Profiler; type: biochemical
Method: as §1

[6] = target: PDGFRα(V561D)(h) (Homo sapiens, UniProt P16234, V561D); assay: Kinase Profiler; type: biochemical
Method: as §2

[7] = target: IRR(h) (Homo sapiens, UniProt P14616); assay: Kinase Profiler; type: biochemical
Chain of IRR(h) (P14616 27-1297): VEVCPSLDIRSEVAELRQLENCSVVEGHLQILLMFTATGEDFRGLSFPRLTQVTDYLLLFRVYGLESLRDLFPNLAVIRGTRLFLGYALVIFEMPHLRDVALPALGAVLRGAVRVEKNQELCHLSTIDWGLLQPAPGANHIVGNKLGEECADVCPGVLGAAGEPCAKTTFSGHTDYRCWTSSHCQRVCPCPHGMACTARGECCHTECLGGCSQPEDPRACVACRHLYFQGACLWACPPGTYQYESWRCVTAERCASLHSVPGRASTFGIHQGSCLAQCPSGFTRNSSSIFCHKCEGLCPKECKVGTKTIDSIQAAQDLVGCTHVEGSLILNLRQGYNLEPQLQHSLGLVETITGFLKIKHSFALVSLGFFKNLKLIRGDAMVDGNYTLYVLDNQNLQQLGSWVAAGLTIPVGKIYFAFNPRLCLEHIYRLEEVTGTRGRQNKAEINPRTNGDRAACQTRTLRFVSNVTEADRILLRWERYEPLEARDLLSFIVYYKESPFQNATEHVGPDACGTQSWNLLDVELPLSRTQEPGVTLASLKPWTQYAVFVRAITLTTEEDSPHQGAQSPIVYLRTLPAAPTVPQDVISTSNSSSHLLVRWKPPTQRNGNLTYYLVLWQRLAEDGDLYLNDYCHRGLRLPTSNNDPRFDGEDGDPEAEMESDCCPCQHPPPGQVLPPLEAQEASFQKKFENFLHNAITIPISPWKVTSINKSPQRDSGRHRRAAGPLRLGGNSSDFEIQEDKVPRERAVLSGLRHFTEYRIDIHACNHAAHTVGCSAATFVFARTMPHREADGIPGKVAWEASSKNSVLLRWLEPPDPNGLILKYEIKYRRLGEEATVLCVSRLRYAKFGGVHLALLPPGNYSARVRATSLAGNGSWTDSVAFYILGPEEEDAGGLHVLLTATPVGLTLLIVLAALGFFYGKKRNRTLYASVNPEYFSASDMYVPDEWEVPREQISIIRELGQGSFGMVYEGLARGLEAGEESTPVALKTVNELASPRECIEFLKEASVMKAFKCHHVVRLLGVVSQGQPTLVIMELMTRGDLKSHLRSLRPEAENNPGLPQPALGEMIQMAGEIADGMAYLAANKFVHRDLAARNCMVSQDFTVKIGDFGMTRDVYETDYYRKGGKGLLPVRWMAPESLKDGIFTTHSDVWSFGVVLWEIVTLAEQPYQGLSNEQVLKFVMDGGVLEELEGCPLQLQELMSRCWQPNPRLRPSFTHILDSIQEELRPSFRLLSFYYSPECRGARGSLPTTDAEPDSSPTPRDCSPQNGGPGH
Method: as §1

[8] = target: Protein Tyrosine Kinase, LCK (Homo sapiens, UniProt P06239); assay: Safety screen; type: biochemical
Method: as §2

[9] = test system: CHO; assay: Micronucleus assay (HCA); type: cell-based
Excerpt: Data S4. Micronucleus assay-A41.
Test Scored % Cytotox % Cytotox % Micronucleated t-Test Test
Concentr. Cells Index CBPI NumbersCell Cells p-value Result […]
Micronucleus (CHO - S9, HCA)

[10] = target: SNRK(h) (Homo sapiens, UniProt Q9NRH2); assay: Kinase Profiler; type: biochemical
Method: as §2

[11] = target: GRK7(h) (Homo sapiens, UniProt Q8WTQ7); assay: Kinase Profiler; type: biochemical
Method: as §1

[12] = target: CaMKIδ(h) (Homo sapiens, UniProt Q8IU85); assay: Kinase Profiler; type: biochemical
Method: as §2

[13] = target: Adenosine A2A (Homo sapiens, UniProt P29274); assay: Safety screen; type: binding
Method: as §2

[14] = target: NDR1(h) (Homo sapiens, UniProt Q15208); assay: Kinase Profiler; type: biochemical
Method: as §2

[15] = target: PKCβI(h) (Homo sapiens, UniProt P05771); assay: Kinase Profiler; type: biochemical
Method: as §2

[16] = target: JNK1α1(h) (Homo sapiens, UniProt P45983); assay: Kinase Profiler; type: biochemical
Chain of JNK1α1(h) (P45983 1-384 isoform P45983-2): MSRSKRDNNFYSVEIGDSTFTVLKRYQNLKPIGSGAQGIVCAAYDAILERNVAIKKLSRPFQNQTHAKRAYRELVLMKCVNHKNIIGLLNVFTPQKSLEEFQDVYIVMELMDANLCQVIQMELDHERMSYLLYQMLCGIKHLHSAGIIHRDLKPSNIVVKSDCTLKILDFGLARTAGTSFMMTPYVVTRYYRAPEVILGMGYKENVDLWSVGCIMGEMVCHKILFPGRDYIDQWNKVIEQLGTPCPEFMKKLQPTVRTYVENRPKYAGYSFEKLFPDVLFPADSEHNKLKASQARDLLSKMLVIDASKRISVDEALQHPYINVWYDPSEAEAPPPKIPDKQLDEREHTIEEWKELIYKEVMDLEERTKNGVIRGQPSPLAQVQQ
Method: as §2

[17] = target: HIPK2(h) (Homo sapiens, UniProt Q9H2X6); assay: Kinase Profiler; type: biochemical
Method: as §2

[18] = target: Abl (Q252H) (h) (Homo sapiens, UniProt P00519, Q252H); assay: Kinase Profiler; type: biochemical
Method: as §2

[19] = target: PPARγ (Homo sapiens, UniProt P37231); assay: Safety screen; type: binding
Method: as §1

[20] = target: MKK3(h) (Homo sapiens, UniProt P46734); assay: Kinase Profiler; type: biochemical
Method: as §2

[21] = test system: CT26 cells; assay: Colorectal tumor model (hepatic metastasis); type: in vivo, mouse; conditions: 25 mg/kg/day i.p., 2 weeks after s.c. implantation
Excerpt: Figure 7 A41 decreases metastasis of colorectal cancer cells in vivo (A–C) Therapeutic effect of A41 on the pulmonary metastasis formation of colorectal circulating tumoral cells (CT26 cells). In control, A41-, and cisplatin-treated mice, metastasis surface (A), survival (B), and body weight (C) were quantified (N = 10 mice; ∗p < 0.05 vs. controls). (D) Therapeutic effect of A41 on colorectal tumor-dependent hepatic metastasis formation (N = 5–8 mice; ∗p < 0.05, ∗∗p < 0.01, and ∗∗∗p < 0.001 vs. controls).
8 weeks-old BALB/c female mice were obtained from the School of Veterinary Sciences at the National University of La Plata and treated in accordance with the Canadian Council on Animal Care and ARRIVE guidelines. 1x10^6 CT26 viable cells were resuspended in PBS (100 μL) and injected subcutaneously into the right flank of each animal. Mice were distributed and treated as follows: control, consist in a daily intraperitoneal (ip) administration of vehicle (5% DMSO, 45% PEG400); A41, ip administration of 25 mg/kg BW/day; 5-FU, ip administration 20 mg/kgBW/week in sterile water; A41+5-FU, ip administration of A41 and 5-FU treatments. Liver metastases were identified and quantified under a stereoscopic magnifying glass. These lesions were distinguished by their isolated circular shape, their marked whitish color contrasting with the reddish liver tissue, and their raised appearance.

[22] = target: VRK1(h) (Homo sapiens, UniProt Q99986); assay: Kinase Profiler; type: biochemical
Chain of VRK1(h) (Q99986 whole entry): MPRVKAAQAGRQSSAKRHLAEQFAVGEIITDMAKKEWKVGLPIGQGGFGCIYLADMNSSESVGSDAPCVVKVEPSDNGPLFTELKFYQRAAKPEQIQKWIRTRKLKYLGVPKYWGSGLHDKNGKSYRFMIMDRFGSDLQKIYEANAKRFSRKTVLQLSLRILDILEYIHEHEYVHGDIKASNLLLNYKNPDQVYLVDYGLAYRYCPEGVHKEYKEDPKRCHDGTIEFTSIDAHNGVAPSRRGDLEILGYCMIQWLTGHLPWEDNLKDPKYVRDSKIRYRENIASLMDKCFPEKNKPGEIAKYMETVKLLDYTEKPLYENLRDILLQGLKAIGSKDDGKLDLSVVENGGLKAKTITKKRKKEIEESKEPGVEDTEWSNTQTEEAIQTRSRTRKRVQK
Method: as §2

[23] = target: MYLK2(h) (Homo sapiens, UniProt Q9H1R3); assay: Kinase Profiler; type: biochemical
Method: as §2

[24] = target: SIK2(h) (Homo sapiens, UniProt Q9H0K1); assay: Kinase Profiler; type: biochemical
Method: as §2

[25] = target: Snk(h) (Homo sapiens, UniProt Q9NYY3); assay: Kinase Profiler; type: biochemical
Chain of Snk(h) (Q9NYY3 whole entry): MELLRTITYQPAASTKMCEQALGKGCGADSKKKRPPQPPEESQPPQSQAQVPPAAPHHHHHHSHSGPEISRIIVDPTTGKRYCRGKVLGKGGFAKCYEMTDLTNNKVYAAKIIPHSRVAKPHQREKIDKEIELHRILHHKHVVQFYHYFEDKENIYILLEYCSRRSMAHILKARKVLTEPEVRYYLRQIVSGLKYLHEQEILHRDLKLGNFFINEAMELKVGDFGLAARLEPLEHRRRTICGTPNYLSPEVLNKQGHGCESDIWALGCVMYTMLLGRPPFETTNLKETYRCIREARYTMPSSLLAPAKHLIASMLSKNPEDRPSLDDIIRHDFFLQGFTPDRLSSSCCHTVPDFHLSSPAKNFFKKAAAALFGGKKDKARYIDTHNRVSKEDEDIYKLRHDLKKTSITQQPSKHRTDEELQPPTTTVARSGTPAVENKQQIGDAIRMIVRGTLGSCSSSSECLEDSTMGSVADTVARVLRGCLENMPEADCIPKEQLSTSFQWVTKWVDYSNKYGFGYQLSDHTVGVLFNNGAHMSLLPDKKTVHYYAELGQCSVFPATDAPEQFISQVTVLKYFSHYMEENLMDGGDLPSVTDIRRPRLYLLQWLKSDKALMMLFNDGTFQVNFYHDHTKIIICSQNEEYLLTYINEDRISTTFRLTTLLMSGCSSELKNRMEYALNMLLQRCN
Method: as §2

[26] = target: Peptidase, Angiotensin Converting Enzyme (Oryctolagus cuniculus, UniProt P12822); assay: Safety screen; type: biochemical, rabbit
Method: Blood cell counts, kinase profiler, safety screen, bacterial cytotoxicity, Ames, micronucleus assays were performed by the company Eurofins (France).

[27] = target: BrSK2(h) (Homo sapiens, UniProt Q8IWQ3); assay: Kinase Profiler; type: biochemical
Chain of BrSK2(h) (Q8IWQ3 whole entry): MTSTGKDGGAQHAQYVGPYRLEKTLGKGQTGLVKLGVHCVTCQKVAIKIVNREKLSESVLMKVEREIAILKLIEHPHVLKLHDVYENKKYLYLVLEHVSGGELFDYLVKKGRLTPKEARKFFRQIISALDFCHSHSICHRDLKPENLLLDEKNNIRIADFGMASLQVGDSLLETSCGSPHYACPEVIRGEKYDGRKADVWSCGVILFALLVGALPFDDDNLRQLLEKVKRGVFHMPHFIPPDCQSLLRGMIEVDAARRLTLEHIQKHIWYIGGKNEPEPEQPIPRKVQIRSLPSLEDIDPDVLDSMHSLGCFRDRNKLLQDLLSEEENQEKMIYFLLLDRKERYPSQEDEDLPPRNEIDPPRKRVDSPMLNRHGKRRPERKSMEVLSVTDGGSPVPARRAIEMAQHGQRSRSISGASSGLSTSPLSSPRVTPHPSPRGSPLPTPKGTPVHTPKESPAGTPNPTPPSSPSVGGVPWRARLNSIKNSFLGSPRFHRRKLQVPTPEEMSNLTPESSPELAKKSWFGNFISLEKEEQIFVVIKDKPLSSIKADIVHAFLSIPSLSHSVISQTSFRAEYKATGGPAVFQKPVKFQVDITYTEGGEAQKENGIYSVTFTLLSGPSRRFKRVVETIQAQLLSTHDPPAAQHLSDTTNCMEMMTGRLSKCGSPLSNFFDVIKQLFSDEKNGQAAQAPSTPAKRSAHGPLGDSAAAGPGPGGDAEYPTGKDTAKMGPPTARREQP
Method: as §1

[28] = target: Lyn(h) (Homo sapiens, UniProt P07948); assay: Kinase Profiler; type: biochemical
Method: as §2

[29] = target: DRAK1(h) (Homo sapiens, UniProt Q9UEE5); assay: Kinase Profiler; type: biochemical
Method: as §1

Chain of ROCK-I(h) (Q13464 whole entry): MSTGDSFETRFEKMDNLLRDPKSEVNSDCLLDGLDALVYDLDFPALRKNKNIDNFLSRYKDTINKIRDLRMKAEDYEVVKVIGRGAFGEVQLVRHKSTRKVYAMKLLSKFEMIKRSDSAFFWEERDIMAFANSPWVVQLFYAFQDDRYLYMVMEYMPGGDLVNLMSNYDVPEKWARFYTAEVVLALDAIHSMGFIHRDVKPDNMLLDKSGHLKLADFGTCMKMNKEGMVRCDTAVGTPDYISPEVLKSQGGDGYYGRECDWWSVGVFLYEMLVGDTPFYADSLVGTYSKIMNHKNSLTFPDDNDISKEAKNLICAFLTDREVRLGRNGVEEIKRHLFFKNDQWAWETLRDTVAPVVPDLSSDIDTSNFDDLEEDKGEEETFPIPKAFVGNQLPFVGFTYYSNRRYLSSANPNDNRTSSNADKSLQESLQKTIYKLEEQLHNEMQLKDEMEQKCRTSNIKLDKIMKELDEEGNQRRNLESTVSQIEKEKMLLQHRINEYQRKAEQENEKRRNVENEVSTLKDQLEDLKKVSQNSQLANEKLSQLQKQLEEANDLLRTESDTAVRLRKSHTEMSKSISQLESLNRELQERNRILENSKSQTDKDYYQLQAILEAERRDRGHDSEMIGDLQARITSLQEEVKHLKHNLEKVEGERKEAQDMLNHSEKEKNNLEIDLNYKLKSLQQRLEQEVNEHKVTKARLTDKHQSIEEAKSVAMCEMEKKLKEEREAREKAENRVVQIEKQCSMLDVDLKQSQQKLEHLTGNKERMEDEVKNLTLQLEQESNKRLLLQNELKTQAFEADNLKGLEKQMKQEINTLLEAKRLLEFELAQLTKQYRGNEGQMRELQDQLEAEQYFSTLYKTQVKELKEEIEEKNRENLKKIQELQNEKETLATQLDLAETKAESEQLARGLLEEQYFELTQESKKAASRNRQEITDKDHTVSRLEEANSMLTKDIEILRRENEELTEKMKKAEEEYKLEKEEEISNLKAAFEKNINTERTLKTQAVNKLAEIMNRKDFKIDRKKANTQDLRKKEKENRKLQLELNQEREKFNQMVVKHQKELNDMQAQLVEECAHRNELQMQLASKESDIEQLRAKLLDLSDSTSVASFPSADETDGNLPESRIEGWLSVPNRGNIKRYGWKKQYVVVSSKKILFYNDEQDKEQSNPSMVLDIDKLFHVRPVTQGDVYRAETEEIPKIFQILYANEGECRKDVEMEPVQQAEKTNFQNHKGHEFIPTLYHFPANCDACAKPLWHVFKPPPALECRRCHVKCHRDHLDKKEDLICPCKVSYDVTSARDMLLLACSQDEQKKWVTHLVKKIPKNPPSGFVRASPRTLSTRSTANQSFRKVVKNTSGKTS

SMILES: COc1ccc(OC)c(NS(=O)(=O)c2ccc(NC(=O)CCSc3ccc(C)cc3)cc2)c1 [Compound A41]
- Activity(%) [1]: 101%
- Activity(%) [2]: 111%
- Activity(%) [3]: 96%
- Activity(%) [4]: 111%
- Activity(%) [5]: 117%
- Activity(%) [6]: 119%
- Activity(%) [7]: 118%
- % inh. [8]: 14%
- % Cytotox Cell Numbers ([9]; - S9, 1.3E-04 M): 64.6%
- % Cytotox Index CBPI ([9]; - S9, 1.3E-04 M): 72.8%
- % Micronucleated Cells ([9]; - S9, 1.3E-04 M): 13.39%
- % Cytotox Cell Numbers ([9]; - S9, 1.6E-05 M): 26.4%
- % Cytotox Index CBPI ([9]; - S9, 1.6E-05 M): -23.9%
- % Micronucleated Cells ([9]; - S9, 1.6E-05 M): 2.04%
- % Cytotox Cell Numbers ([9]; - S9, 2.5E-04 M): 73.6%
- % Cytotox Index CBPI ([9]; - S9, 2.5E-04 M): 73.8%
- % Micronucleated Cells ([9]; - S9, 2.5E-04 M): 14.40%
- % Cytotox Cell Numbers ([9]; - S9, 3.1E-05 M): 42.0%
- % Cytotox Index CBPI ([9]; - S9, 3.1E-05 M): 8.1%
- % Micronucleated Cells ([9]; - S9, 3.1E-05 M): 3.12%
- % Cytotox Cell Numbers ([9]; - S9, 6.3E-05 M): 52.5%
- % Cytotox Index CBPI ([9]; - S9, 6.3E-05 M): 65.8%
- % Micronucleated Cells ([9]; - S9, 6.3E-05 M): 6.96%
- % Cytotox Cell Numbers ([9]; - S9, 7.8E-06 M): 14.3%
- % Cytotox Index CBPI ([9]; - S9, 7.8E-06 M): -21.4%
- % Micronucleated Cells ([9]; - S9, 7.8E-06 M): 1.13%
- Activity(%) [10]: 123%
- Activity(%) [11]: 100%
- Activity(%) [12]: 94%
- % inh. [13]: 16%
- Activity(%) [14]: 114%
- Activity(%) [15]: 98%
- Activity(%) [16]: 94%
- Activity(%) [17]: 81%
- Activity(%) [18]: 105%
- % inh. [19]: -7%
- Activity(%) [20]: 117%
- number of liver metastases [21]: significantly reduced the number of metastases; also recorded: more effective than 5-fluorouracil (5FU)
- Activity(%) [22]: 103%
- Activity(%) [23]: 103%
- Activity(%) [24]: 90%
- Activity(%) [25]: 112%
- % inh. [26]: 11%
- Activity(%) [27]: 118%
- Activity(%) [28]: 109%
- Activity(%) [29]: 101%

Reference: PMC12281424, “A Rac-specific competitive inhibitor of guanine nucleotide binding reduces metastasis in triple-negative breast cancer” (Cell Reports Medicine, 2025)
